{"source": "patent US10618869B2", "about": "“Oligo-benzamide compounds and their use” (The Board of Regents of the University of Texas System, priority 2010, dated 2020)", "note": "Entries after “also recorded” stand apart in the source; their conditions may differ.", "data": [{"test_system": "PCa cell lines that contain AR", "experiment": "DHT-induced proliferation of prostate cancer cells (MTT assay)", "type": "cell-based", "conditions": "DHT-induced proliferation, MTT assay; structure-function series", "protocol": "FIGS. 10A-E. D2 blocks proliferation of prostate cancer cells in vitro and in vivo (a) Effect of pretreatment with 100 nM of D1 and D2 on DHT-induced proliferation in multiple prostate cancer cell lines in MTT assay. Numbers are normalized to a baseline of 100, which represents the untreated rate of proliferation. (b) Effect of pretreatment with 100 nM of D1 and D2 on DHT-induced proliferation in LNCaPcells on a Cyquant assay. (c) Dose dependent curve of D2 on proliferation of LAPC4 cells. (d) Rescue of DHT induced proliferation by overexpression of PELP1 following suppression of DHT induced proliferation with 100 nM of D2. (e). Effect of direct intratumoral injections of D1 and D2 on the proliferation of prostate cancer xenografts in animal models: Following establishment of subcutaneous xenografts in animal models, daily direct intratumoral injections of D1 and D2 were performed. Bioluminesence imaging was used to track the growth of the tumors and the effect of D1 and D2 quantitated as shown in the graph.\nThe importance of PELP1 and AR interaction on DHT-mediated proliferation of prostate cancer cells were confirmed using rescue experiments, where D2 suppression of DHT-mediated proliferation was overcome by overexpression of PELP1 in LNCaP PCa cells.\n(§1) In this experiment, cells were plated (2-10×10^3/well) in 96 well plates and subjected to androgen deprivation for 48 hours with phenol-red free RPMI and 1% charcoal stripped fetal bovine serum (CSF). Cells were then treated with either ethanol, EGF or DHT as a positive control for 48 hours. Peptidomimetics were added 2 hours prior to treatment. Cell proliferation was measured using the MTT colorimetric assay.\nas §1, with “Cells” for “In this experiment, cells”, “96-well” for “96 well”, “ethanol” for “ethanol, EGF”, “hours” for “hours.”", "values": [{"compound": "COC(=O)c1ccc(NC(=O)c2ccc(NC(=O)CN)c(OCC(C)C)c2)c(OCC(C)C)c1", "note": "[D2-4]", "activity on the proliferation of prostate cancer cells (FIGS. 17, 19A-N)": "maximal activity; also recorded: good activity"}, {"compound": "CC(C)COc1cc(C(=O)Nc2ccc(C(N)=O)cc2OCC(C)C)ccc1NC(=O)CCC(=O)O", "note": "[D2-12]", "activity on the proliferation of prostate cancer cells (FIGS. 17, 19A-N)": "good activity"}, {"compound": "CC(C)COc1cc(C(=O)Nc2ccc(C(=O)N(C(C)C)C(C)C)cc2OCC(C)C)ccc1NC(=O)CN", "note": "[D2-23]", "activity on the proliferation of prostate cancer cells (FIGS. 17, 19A-N)": "good activity"}, {"compound": "CC(C)COc1cc(C(=O)Nc2ccc(C(=O)NCCCCO)cc2OCC(C)C)ccc1NC(=O)CN", "note": "[D2-26]", "activity on the proliferation of prostate cancer cells (FIGS. 17, 19A-N)": "good activity"}, {"compound": "COC(=O)c1ccc(NC(=O)c2ccc([N+](=O)[O-])c(NCC(C)C)c2)c(NCC(C)C)c1", "note": "[D2-47]", "activity on the proliferation of prostate cancer cells (FIGS. 17, 19A-N)": "good activity"}, {"compound": "C=C(C)COc1cc(C(=O)OC)ccc1NC(=O)c1ccc([N+](=O)[O-])c(OCC(=C)C)c1", "note": "[D29]", "activity on the proliferation of prostate cancer cells (FIGS. 17, 19A-N)": "good activity"}, {"compound": "CC(C)COc1cc(C(=O)Nc2ccc(C(N)=O)cc2OCCc2ccc3ccccc3c2)ccc1NC(=O)c1ccc([N+](=O)[O-])c(OCC(C)C)c1", "note": "[TK6-R]", "activity on the proliferation of prostate cancer cells (FIGS. 17, 19A-N)": "good activity"}]}, {"target": "T1, human AR (Homo sapiens, UniProt P10275)", "T1 sequence (P10275 1-920)": "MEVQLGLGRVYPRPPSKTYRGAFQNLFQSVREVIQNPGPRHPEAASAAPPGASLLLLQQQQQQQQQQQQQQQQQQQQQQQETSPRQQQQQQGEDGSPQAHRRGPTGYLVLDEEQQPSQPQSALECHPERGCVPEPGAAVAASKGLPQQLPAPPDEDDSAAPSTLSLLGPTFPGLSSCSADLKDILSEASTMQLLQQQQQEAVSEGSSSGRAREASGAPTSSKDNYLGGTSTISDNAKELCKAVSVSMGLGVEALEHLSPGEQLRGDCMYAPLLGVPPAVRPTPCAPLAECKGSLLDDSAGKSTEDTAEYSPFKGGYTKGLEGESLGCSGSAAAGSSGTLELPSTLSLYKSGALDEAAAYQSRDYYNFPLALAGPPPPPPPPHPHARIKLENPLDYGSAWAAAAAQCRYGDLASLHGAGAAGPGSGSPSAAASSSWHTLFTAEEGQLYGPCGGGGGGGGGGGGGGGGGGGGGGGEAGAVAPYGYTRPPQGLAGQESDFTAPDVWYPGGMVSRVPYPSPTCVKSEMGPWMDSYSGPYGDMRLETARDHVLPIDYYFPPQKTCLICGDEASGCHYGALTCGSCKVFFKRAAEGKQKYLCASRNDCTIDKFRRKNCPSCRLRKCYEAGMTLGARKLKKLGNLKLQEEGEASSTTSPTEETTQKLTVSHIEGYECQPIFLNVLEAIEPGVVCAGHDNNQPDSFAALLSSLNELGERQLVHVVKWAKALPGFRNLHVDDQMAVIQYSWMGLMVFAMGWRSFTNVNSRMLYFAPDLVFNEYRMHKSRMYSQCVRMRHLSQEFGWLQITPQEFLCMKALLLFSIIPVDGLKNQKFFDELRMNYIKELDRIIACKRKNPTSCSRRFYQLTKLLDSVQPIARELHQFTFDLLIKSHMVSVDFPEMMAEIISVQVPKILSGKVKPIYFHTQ", "experiment": "not given", "conditions": "LXXLL motif-bound AF-2 interface of human AR; PLoS Biology 2:e274, 2004; read-out: Kd of LXXLL peptide; cited from earlier work", "units": {"Kd": "nM"}, "values": [{"compound": "SSRGLLWDLLTKDSR [LXXLL peptide co-crystallised with human AR AF-2]", "Kd": 1800}]}]}
